Calls of active or inactive are those of the source. The rule behind the calls is not given here.
Tests used:
[1] = tested on: Mammalian orthoreovirus 1; format: functional; conditions: Mammalian orthoreovirus 1, Vero
Human alphaherpesvirus 3 [2] = format: functional, cell-based; conditions: Human alphaherpesvirus 3, strain Oka vaccine, HEL
Vaccinia virus = test: microbe, parasite or virus in culture; conditions: Orthopoxvirus vaccinia, HEL
Human alphaherpesvirus 1 [3] = format: functional, cell-based; conditions: Human alphaherpesvirus 1, KOS, HEL
Human alphaherpesvirus 2 = format: functional, cell-based; conditions: Human alphaherpesvirus 2, G, HEL
[4] = tested on: Vesicular stomatitis virus; test: microbe, parasite or virus in culture; conditions: HEL
Heme [5] = test: Binding affinity to monomeric heme (unknown origin) assessed as monomeric heme-compound complex formation up to 37.3 uM by UV-visible absorption spectrophotometry
[6] = Cytotoxicity against MDCK cells assessed as alteration of normal cell morphology by microscopic analysis; format: cell-based, Canis lupus familiaris; conditions: dog
[7] = Selectivity index, ratio of IC50 for human HeLa cells to IC50 for chloroquine-sensitive asexual intraerythrocytic stage of Plasmodium falciparum NF54; format: toxicity, cell-based; conditions: read-out: Ratio IC50
Coxsackievirus [8] = format: functional, cell-based; conditions: B4, HeLa
Human betaherpesvirus 5 [9] = format: functional, cell-based; conditions: Human betaherpesvirus 5, AD169, HEL
unidentified adenovirus = format: functional, cell-based; conditions: HEL
Plasmodium falciparum [10] = test: microbe, parasite or virus in culture; conditions: NF54
Human alphaherpesvirus 1 [11] = format: functional, cell-based; conditions: Human alphaherpesvirus 1, KOS, HEL; remark: listed apart in the source
[12] = Cytotoxicity against human HEL cells assessed as alteration of normal cell morphology by microscopic analysis; format: cell-based
[13] = tested on: Vesicular stomatitis virus; test: microbe, parasite or virus in culture; conditions: HeLa
Influenza B virus = test: microbe, parasite or virus in culture; conditions: MDCK
CCRF-CEM = test: Cytotoxicity against human CEM cells assessed as inhibition of cell proliferation by Coulter counter analysis; format: cell-based
[14] = Cytotoxicity against human HeLa cells assessed as alteration of normal cell morphology by microscopic analysis; format: cell-based
[15] = Selectivity index, ratio of IC50 for human HeLa cells to IC50 for chloroquine-resistant asexual intraerythrocytic stage of Plasmodium falciparum Dd2; format: toxicity, cell-based; conditions: read-out: Ratio IC50
Human betaherpesvirus 5 [16] = format: functional, cell-based; conditions: Human betaherpesvirus 5, Davis, HEL
[17] = Cytotoxicity against african green monkey Vero cells assessed as alteration of normal cell morphology by microscopic analysis; format: cell-based; conditions: chlorocebus sabaeus
Plasmodium falciparum [18] = test: microbe, parasite or virus in culture; conditions: Dd2
[19] = Cytotoxicity against MDCK cells assessed as inhibition of cell viability by colorimetric formazan-based MTS assay; parameters: species or system Canis lupus familiaris; conditions: dog
Human orthopneumovirus = format: functional, cell-based; conditions: human respiratory syncytial virus, HeLa
Plasmodium falciparum [20] = test: Resistance index, ratio of IC50 for chloroquine-resistant asexual intraerythrocytic stage of Plasmodium falciparum Dd2 to IC50 for chloroquine-sensitive asexual intraerythrocytic stage of Plasmodium falciparum NF54; format: functional
Influenza A virus [21] = test: microbe, parasite or virus in culture; conditions: H1N1, MDCK
[22] = Cytotoxicity against human HEL cells assessed as inhibition of cell viability by colorimetric formazan-based MTS assay
L1210 = test: Cytotoxicity against mouse L1210 cells assessed as inhibition of cell proliferation by Coulter counter analysis; format: cell-based
Sindbis virus = format: functional; conditions: Vero
Coxsackievirus [23] = format: functional; conditions: B4, Vero
HeLa = test: Cytotoxicity against human HeLa cells assessed as inhibition of cell proliferation by Coulter counter analysis; format: cell-based
Human respirovirus 3 = format: functional; conditions: Human respirovirus 3, Vero
Influenza A virus [24] = test: microbe, parasite or virus in culture; conditions: H3N2, MDCK
Human alphaherpesvirus 3 [25] = format: functional, cell-based; conditions: Human alphaherpesvirus 3, 07-1, HEL
Punta Toro virus = format: functional; conditions: Vero
Plasmodium falciparum [26] = test: Potency index, ratio of chloroquine IC50 to test compound IC50 for chloroquine-resistant asexual intraerythrocytic stage of Plasmodium falciparum Dd2; format: functional
Heme [27] = test: Binding affinity to monomeric heme (unknown origin) assessed as 1:1 stoichiometry for monomeric heme-compound complex at pH 7.5 by Job's plot analysis
mu-oxodimeric heme = test: Binding affinity to mu-oxo-heme (unknown origin) assessed as 1:1 stoichiometry for mu-oxo-heme-compound complex at pH 5.8 by Job's plot analysis
Heme [28] = test: Binding affinity to monomeric heme (unknown origin) assessed as 1:1 ratio of monomeric heme-compound complex at 0.24 mM by mass spectra analysis
Heme [29] = test: Binding affinity to monomeric heme (unknown origin) assessed as 1:1 stoichiometry for monomeric heme-compound complex at pH 5.6 by Job's plot analysis

SMILES	EC50 [1] [µM]	EC50 (Human alphaherpesvirus 3 [2]) [µM]	EC50 (Vaccinia virus) [µM]	EC50 (Human alphaherpesvirus 1 [3]) [µM]	EC50 (Human alphaherpesvirus 2) [µM]	EC50 [4] [µM]	MCC [6] [µM]	selectivity ratio [7]	EC50 (Coxsackievirus [8]) [µM]	EC50 (Human betaherpesvirus 5 [9]) [µM]	EC50 (unidentified adenovirus) [µM]	IC50 (Plasmodium falciparum [10]) [µM]	EC50 (Human alphaherpesvirus 1 [11]) [µM]	MCC [12] [µM]	EC50 [13] [µM]	EC50 (Influenza B virus) [µM]	IC50 (CCRF-CEM) [µM]	MCC [14] [µM]	selectivity ratio [15]	EC50 (Human betaherpesvirus 5 [16]) [µM]	also measured
CSc1nc(-c2ccccc2)c(C#N)c(N2CCN(c3ccnc4cc(Cl)ccc34)CC2)n1	> 100	> 100	> 100	> 100	> 100	> 100	> 100	> 1.9	> 100	> 20	> 100	132	> 100	≥ 100	> 100	> 100	> 250	> 100	> 1.1	> 100	Activity (Heme [5]): inactive; MCC [17]: > 100 µM; IC50 (Plasmodium falciparum [18]): 212 µM; CC50 [19]: > 100 µM; EC50 (Human orthopneumovirus): > 100 µM; Ratio IC50 (Plasmodium falciparum [20]): 1.6; EC50 (Influenza A virus [21]): > 100 µM; CC50 [22]: > 100 µM; IC50 (L1210): > 250 µM; EC50 (Sindbis virus): > 100 µM; EC50 (Coxsackievirus [23]): > 100 µM; IC50 (HeLa): > 250 µM; EC50 (Human respirovirus 3): > 100 µM; EC50 (Influenza A virus [24]): > 100 µM; EC50 (Human alphaherpesvirus 3 [25]): > 100 µM; EC50 (Punta Toro virus): > 100 µM
COc1cc(-c2nc(SC)nc(NCCCCNc3ccnc4cc(Cl)ccc34)c2C#N)cc(OC)c1OC	> 0.8	> 4	> 0.8	> 0.8	> 0.8	> 0.8	4	37.4	> 4	> 4	> 0.8	0.0909	> 0.8	4 to 20	> 4	> 0.8	3.6	20	37.9	> 4	MCC [17]: 4 µM; IC50 (Plasmodium falciparum [18]): 0.0895 µM; CC50 [19]: 2 µM; EC50 (Human orthopneumovirus): > 4 µM; Ratio IC50 (Plasmodium falciparum [20]): 0.98; EC50 (Influenza A virus [21]): > 0.8 µM; CC50 [22]: 1.5 µM; IC50 (L1210): 3.8 µM; EC50 (Sindbis virus): > 0.8 µM; EC50 (Coxsackievirus [23]): > 0.8 µM; IC50 (HeLa): 3.4 µM; EC50 (Human respirovirus 3): > 0.8 µM; EC50 (Influenza A virus [24]): > 0.8 µM; EC50 (Human alphaherpesvirus 3 [25]): > 4 µM; Ratio IC50 (Plasmodium falciparum [26]): 3; EC50 (Punta Toro virus): > 0.8 µM
CSc1nc(NCCCCNc2ccnc3cc(Cl)ccc23)c(C#N)c(-c2cccc([N+](=O)[O-])c2)n1	> 4	> 0.8	> 4	> 4	> 4	> 4	20	16	> 20	> 0.8	> 4	0.0685	> 4	≥ 4	> 20	> 4	2.1	100	19.7	> 0.8	Activity (Heme [27]): Active; Activity (mu-oxodimeric heme): Active; Activity (Heme [28]): Active; MCC [17]: 20 µM; IC50 (Plasmodium falciparum [18]): 0.0558 µM; CC50 [19]: 9.6 µM; EC50 (Human orthopneumovirus): > 20 µM; Ratio IC50 (Plasmodium falciparum [20]): 0.81; EC50 (Influenza A virus [21]): > 4 µM; Activity (Heme [29]): Active; CC50 [22]: 4.2 µM; IC50 (L1210): 2.1 µM; EC50 (Sindbis virus): > 4 µM; EC50 (Coxsackievirus [23]): > 4 µM; IC50 (HeLa): 1.1 µM; EC50 (Human respirovirus 3): > 4 µM; EC50 (Influenza A virus [24]): > 4 µM; EC50 (Human alphaherpesvirus 3 [25]): > 0.8 µM; Ratio IC50 (Plasmodium falciparum [26]): 4; EC50 (Punta Toro virus): > 4 µM
CSc1nc(-c2ccc([N+](=O)[O-])cc2)c(C#N)c(N2CCN(c3ccnc4cc(Cl)ccc34)CC2)n1	> 20	> 100	> 100	> 100	> 100	> 100	> 100	18.6	> 100	> 100	> 100	12.2	> 100	≥ 100	> 100	> 100	156	> 100	23.1	> 100	MCC [17]: 100 µM; IC50 (Plasmodium falciparum [18]): 9.86 µM; CC50 [19]: > 100 µM; EC50 (Human orthopneumovirus): > 100 µM; Ratio IC50 (Plasmodium falciparum [20]): 0.8; EC50 (Influenza A virus [21]): > 100 µM; CC50 [22]: > 100 µM; IC50 (L1210): 206 µM; EC50 (Sindbis virus): > 20 µM; EC50 (Coxsackievirus [23]): > 20 µM; IC50 (HeLa): 228 µM; EC50 (Human respirovirus 3): > 20 µM; EC50 (Influenza A virus [24]): > 100 µM; EC50 (Human alphaherpesvirus 3 [25]): > 100 µM; EC50 (Punta Toro virus): > 20 µM

Source: ChEMBL document CHEMBL4000146, “Synthesis, antiplasmodial activity and mechanistic studies of pyrimidine-5-carbonitrile and quinoline hybrids” (Eur J Med Chem, 2015)
